Results from EP4663639A1, “SALT AND CRYSTAL OF MNK INHIBITOR COMPOUND AND PREPARATION METHOD THEREFOR” (Novostar Pharmaceuticals, Ltd., priority 2023, dated 2024).

Legend:
Assay type in all cases: physicochemical
[1] = Temperature and humidity stability, open storage (HPLC purity, XRPD crystal form)
Experimental: The sulfate polymorph A obtained in Example 1 was placed openly under conditions of 25°C/92.5% RH, 25°C/60% RH and 40°C/75% RH to test the temperature and humidity stability. After the samples were stored for 1 week and 4 weeks, respectively, the purity of the samples was tested by HPLC, and the crystalline morphology of the samples was detected by XRPD.
The XRPD results of sulfate polymorph A after 1 and 4 weeks of storage at 25°C/92.5% RH, 25°C/60% RH and 40°C/75% RH are shown in Figures 14 and 15. Table 12 Stability assessment of sulfate polymorph A at different temperatures and humidities

[2] = Storage stability of crystals at different temperatures, airtight (HPLC purity, XRPD crystal form)
Experimental: 10 mg polymorph I of compound 1 obtained in Comparative Example 1 and polymorph A of sulfate salt obtained in Example 1 were placed in an airtight environment and stored at 2~8 °C, 25 °C and 60 °C for 1 week and 2 weeks, respectively, and then samples were taken to examine the chemical purity of the samples by HPLC and the crystal morphology of the samples by XRPD. Table 11 Evaluation of storage properties of crystals at different temperatures

[3] = Solubility in buffers and water (HPLC of supernatant)
Experimental: Polymorph I of compound 1 obtained in Comparative Example 1, and sulfate polymorph A obtained in Example 1 were weighed in a sample vial, to which 1 mL of hydrochloric acid buffer solution at pH=1.2, acetate buffer solution at pH=4.5, phosphate buffer solution at pH=6.8, and water were added, respectively. The suspension was magnetically stirred at 25°C (1000 r/min).

[4] = Moisture adsorption-desorption by DVS; conditions: 25 °C
Experimental: The moisture adsorption-desorption properties of sulfate polymorph A obtained according to Example 1 were examined by DVS. 16 mg of sulfate polymorph A was placed in a metal container, which was placed in an Intrinsic DVS apparatus. A cyclic humidity gradient of 40-95-0-40% RH was set at 25 °C, and the samples were subjected to two successive adsorption-desorption cycles. At each stage, the following equilibrium criteria were used: mass change dm/dt < 0.002% over 5 min, with minimum and maximum equilibrium times of 60 min and 360 min, respectively, at each stage. Table 13 Dynamic water adsorption experiments for sulfate polymorph A

[5] = 25°C/60%RH for four weeks, open
[6] = 25°C/92.5% RH for four weeks, open
[7] = 25°C/92.5% RH for one week, open
[8] = 40°C/75% RH for four weeks, open
[9] = acetate buffer solution pH 4.5, 25°C, 24 h
[10] = hydrochloric acid buffer solution pH 1.2, 25°C, 24 h
[11] = phosphate buffer solution pH 6.8, 25°C, 24 h

## Cc1c2c(c(=O)n3c1C(=O)NC31CCCCC1)Nc1cc(NC(=O)C3CC3)ncc1C2 [Sulfate polymorph A]
[1]; 25°C/60% RH for one week, open
  Aromatic content (%): 1.0%
  Purity (%): 98.1%
[1]; [5]
  Aromatic content (%): 1.0%
  Purity (%): 98.1%
[1]; [6]
  Aromatic content (%): 1.2%
  Purity (%): 97.8%
[1]; [7]
  Aromatic content (%): 1.0%
  Purity (%): 98.1%
[1]; [8]
  Aromatic content (%): 1.1%
  Purity (%): 97.9%
[1]; 40°C/75% RH for one week, open
  Aromatic content (%): 1.0%
  Purity (%): 98.1%
[1]; Initial
  Aromatic content (%): 1.0%
  Purity (%): 98.1%
[1]; different humidity and temperature conditions, 1 and 4 weeks
  structural stability (purity and XRPD) on storage: high structural stability
[2]; 1 week and 2 weeks at 2~8 °C, 25 °C and 60 °C
  crystal structure (XRPD) after storage: did not undergo significant changes
[2]; Initial
  Purity (%): 97.5%
  the amount of aromatic hydrocarbons (%): 1.5%
[2]; One week, 2~8 °C, airtight
  Purity (%): 97.5%
  the amount of aromatic hydrocarbons (%): 1.5%
[2]; One week, 25 °C, airtight
  Purity (%): 97.4%
  the amount of aromatic hydrocarbons (%): 1.5%
[2]; One week, 60 °C, airtight
  Purity (%): 97.3%
  the amount of aromatic hydrocarbons (%): 1.7%
[2]; Two weeks, 2~8 °C, airtight
  Purity (%): 97.5%
  the amount of aromatic hydrocarbons (%): 1.5%
[2]; Two weeks, 25 °C, airtight
  Purity (%): 97.5%
  the amount of aromatic hydrocarbons (%): 1.5%
[2]; Two weeks, 60 °C, airtight
  Purity (%): 97.1%
  the amount of aromatic hydrocarbons (%): 1.8%
[3]; acetate buffer solution pH 4.5, 25°C
  solubility at 24 h: 58.6 µg/mL
[3]; [9]
  pH of the solution after solvation saturation has been reached: 2.0
[3]; hydrochloric acid buffer solution pH 1.2, 25°C
  solubility at 24 h: 22.5 µg/mL
[3]; [10]
  pH of the solution after solvation saturation has been reached: 1.2
[3]; phosphate buffer solution pH 6.8, 25°C
  solubility at 24 h: 21.6 µg/mL
[3]; [11]
  pH of the solution after solvation saturation has been reached: 2.0
[3]; water, 25°C
  solubility at 24 h: 64.7 µg/mL
[3]; water, 25°C, 24 h
  pH of the solution after solvation saturation has been reached: 1.5
[4]; 0%RH-95%RH
  hygroscopicity: slightly hygroscopic
[4]; range 0%RH-95%RH
  moisture absorbed: 1.2%
[4]; Relative humidity 0 %
  1st Desorption Mass change (%): -0.574%
  2nd Adsorption Mass change (%): -0.574%
[4]; Relative humidity 10 %
  1st Desorption Mass change (%): -0.344%
  2nd Adsorption Mass change (%): -0.368%
[4]; Relative humidity 20 %
  1st Desorption Mass change (%): -0.210%
  2nd Adsorption Mass change (%): -0.246%
[4]; Relative humidity 30 %
  1st Desorption Mass change (%): -0.084%
  2nd Adsorption Mass change (%): -0.133%
[4]; Relative humidity 40 %
  1st Adsorption Mass change (%): 0.000%
  1st Desorption Mass change (%): 0.081%
  2nd Adsorption Mass change (%): -0.017%
[4]; Relative humidity 50 %
  1st Adsorption Mass change (%): 0.085%
  1st Desorption Mass change (%): 0.178%
[4]; Relative humidity 60 %
  1st Adsorption Mass change (%): 0.174%
  1st Desorption Mass change (%): 0.253%
[4]; Relative humidity 70 %
  1st Adsorption Mass change (%): 0.260%
  1st Desorption Mass change (%): 0.327%
[4]; Relative humidity 80 %
  1st Adsorption Mass change (%): 0.357%
  1st Desorption Mass change (%): 0.418%
[4]; Relative humidity 90 %
  1st Adsorption Mass change (%): 0.497%
  1st Desorption Mass change (%): 0.589%
[4]; Relative humidity 95 %
  1st Adsorption Mass change (%): 0.604%
  1st Desorption Mass change (%): 0.604%

## N-(12'-methyl-1',5'-dioxo-1',5',6 ',11'-tetrahydro-2'H-spiro[cyclohexane-1,3'-imidazo[1,5':1,6]pyrido[3,4-b][ 1,6]naphthyridin]-8'-yl)cyclopropane carboxamide [polymorph I of Compound 1]
[2]; 2 weeks at high temperature (60 °C)
  crystal structure (XRPD) after storage: the crystal structure changed
[2]; 2 weeks at low temperature (2-8 °C) or room temperature (25 °C)
  crystal structure (XRPD) after storage: did not change significantly
[2]; Initial
  Purity (%): 97.4%
  the amount of aromatic hydrocarbons (%): 1.6%
[2]; One week, 2~8 °C, airtight
  Purity (%): 97.6%
  the amount of aromatic hydrocarbons (%): 1.4%
[2]; One week, 25 °C, airtight
  Purity (%): 97.6%
  the amount of aromatic hydrocarbons (%): 1.4%
[2]; One week, 60 °C, airtight
  Purity (%): 96.6%
  the amount of aromatic hydrocarbons (%): 2.4%
[2]; Two weeks, 2~8 °C, airtight
  Purity (%): 97.5%
  the amount of aromatic hydrocarbons (%): 1.5%
[2]; Two weeks, 25 °C, airtight
  Purity (%): 97.4%
  the amount of aromatic hydrocarbons (%): 1.6%
[2]; Two weeks, 60 °C, airtight
  Purity (%): 96.3%
  the amount of aromatic hydrocarbons (%): 2.7%
[3]; [9]
  Solubility (μg/mL): Not detected
  pH of the solution after solvation saturation has been reached: 3.5
[3]; [10]
  Solubility: 18.7 µg/mL
  pH of the solution after solvation saturation has been reached: 1.0
[3]; [11]
  Solubility (μg/mL): Not detected
  pH of the solution after solvation saturation has been reached: 6.4
[3]; water, 25°C, 24 h
  Solubility (μg/mL): Not detected
  pH of the solution after solvation saturation has been reached: 6.4
